This note sets out measurements from ChEMBL document CHEMBL6120974, “Hydrazide-Based Class I Selective HDAC Inhibitors Completely Reverse Chemoresistance Synergistically in Platinum-Resistant Solid Cancer Cells” (J Med Chem, 2024).

The target of one test is Histone deacetylase 4 (Homo sapiens, UniProt P56524). In words: Inhibition of recombinant HDAC4 (unknown origin) using Bos-Lys(TFA)-AMC as substrate preincubated with compound for 5 mins and measured after 90 mins by NOVOstar microplate reader analysis.
Chain of Histone deacetylase 4 (P56524 whole entry): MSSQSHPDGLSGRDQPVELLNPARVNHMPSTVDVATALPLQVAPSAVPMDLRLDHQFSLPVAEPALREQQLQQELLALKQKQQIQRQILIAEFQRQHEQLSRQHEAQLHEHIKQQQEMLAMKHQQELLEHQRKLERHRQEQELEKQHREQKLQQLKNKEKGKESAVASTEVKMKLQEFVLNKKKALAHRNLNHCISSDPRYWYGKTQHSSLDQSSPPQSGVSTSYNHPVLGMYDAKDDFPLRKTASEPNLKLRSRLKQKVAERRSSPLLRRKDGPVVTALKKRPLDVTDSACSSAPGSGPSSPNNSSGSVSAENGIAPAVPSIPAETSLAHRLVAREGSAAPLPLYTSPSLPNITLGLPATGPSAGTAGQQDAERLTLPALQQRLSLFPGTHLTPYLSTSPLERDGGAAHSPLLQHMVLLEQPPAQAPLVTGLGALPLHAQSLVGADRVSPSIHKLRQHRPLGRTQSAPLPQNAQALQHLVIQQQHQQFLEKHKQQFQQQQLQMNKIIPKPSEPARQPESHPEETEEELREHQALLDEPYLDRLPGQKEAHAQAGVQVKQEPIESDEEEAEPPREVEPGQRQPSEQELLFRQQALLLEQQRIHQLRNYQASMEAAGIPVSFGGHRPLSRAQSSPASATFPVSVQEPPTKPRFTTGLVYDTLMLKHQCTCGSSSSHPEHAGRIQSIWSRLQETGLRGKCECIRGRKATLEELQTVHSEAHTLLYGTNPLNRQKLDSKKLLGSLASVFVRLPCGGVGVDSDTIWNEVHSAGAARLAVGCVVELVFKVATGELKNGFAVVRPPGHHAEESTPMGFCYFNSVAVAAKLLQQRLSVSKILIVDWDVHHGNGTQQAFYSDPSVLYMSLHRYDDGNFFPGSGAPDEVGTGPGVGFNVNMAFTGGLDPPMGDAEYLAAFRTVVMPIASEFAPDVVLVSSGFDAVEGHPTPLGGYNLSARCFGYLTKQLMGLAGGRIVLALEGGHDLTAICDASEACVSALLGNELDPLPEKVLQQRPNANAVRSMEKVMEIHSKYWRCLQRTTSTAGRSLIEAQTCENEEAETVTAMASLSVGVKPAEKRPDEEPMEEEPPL
Test [1] concerns the target T1, Protein deacetylase HDAC6 (Homo sapiens) (UniProt Q9UBN7).
T1 sequence (whole entry): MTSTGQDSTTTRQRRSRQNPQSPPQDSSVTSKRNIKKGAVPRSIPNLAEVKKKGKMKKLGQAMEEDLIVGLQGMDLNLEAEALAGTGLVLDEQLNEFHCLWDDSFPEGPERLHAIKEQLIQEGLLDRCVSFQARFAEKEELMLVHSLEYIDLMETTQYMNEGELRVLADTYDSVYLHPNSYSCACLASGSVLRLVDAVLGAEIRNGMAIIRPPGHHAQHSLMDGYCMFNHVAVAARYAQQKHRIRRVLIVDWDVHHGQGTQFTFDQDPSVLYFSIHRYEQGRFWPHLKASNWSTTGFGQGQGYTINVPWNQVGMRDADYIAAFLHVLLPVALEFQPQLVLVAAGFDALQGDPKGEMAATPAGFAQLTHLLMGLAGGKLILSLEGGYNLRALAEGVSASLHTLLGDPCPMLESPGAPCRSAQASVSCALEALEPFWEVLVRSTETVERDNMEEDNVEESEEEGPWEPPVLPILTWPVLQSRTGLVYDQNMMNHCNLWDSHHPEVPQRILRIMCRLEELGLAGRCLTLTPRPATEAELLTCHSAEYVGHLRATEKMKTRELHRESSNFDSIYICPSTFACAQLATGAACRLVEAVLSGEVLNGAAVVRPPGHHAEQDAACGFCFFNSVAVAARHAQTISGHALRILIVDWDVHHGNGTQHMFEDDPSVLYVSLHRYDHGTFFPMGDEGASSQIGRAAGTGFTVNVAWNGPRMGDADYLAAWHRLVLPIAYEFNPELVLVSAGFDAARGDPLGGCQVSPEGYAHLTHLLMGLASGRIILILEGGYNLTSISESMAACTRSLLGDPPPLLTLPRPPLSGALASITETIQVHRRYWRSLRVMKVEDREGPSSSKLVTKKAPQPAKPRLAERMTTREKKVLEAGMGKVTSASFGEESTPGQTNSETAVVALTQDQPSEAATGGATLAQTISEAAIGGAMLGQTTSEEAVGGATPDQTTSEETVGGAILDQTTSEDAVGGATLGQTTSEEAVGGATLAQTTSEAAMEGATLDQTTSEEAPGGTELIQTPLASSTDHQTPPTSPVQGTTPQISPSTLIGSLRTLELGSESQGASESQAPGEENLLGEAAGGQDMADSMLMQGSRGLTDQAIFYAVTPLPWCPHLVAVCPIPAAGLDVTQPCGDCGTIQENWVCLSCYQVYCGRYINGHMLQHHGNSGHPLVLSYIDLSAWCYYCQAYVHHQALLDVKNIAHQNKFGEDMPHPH
In words: Inhibition of N-terminal GST-tagged full length recombinant human HDAC6 (1 to 1215 end residues) expressed in sf9 cells at > 10 uM using ZMAL (Z-Lys(Ac)-AMC as fluorogenic substrate preincubated with compound for 60 mins followed by substrate addition and measured after 90 mins by fluorescence based microplate reader analysis relative to control. The conditions noted are these: time 150.0 min.

For a further test, the system named is CAL-27. In words: cells. The conditions noted are these: Homo sapiens, CAL-27, 72 h.
A short description of test [2]: cells. The conditions noted are these: Homo sapiens, Cal27CisR.
Description: Inhibition of class I/6 HDAC (unknown origin) in cisplatin resistant human Cal27CisR cells using Boc-Lys(epsilon-Ac)-AMC as substrate preincubated with compound for 18 hrs followed by substrate addition and measured after 3 hrs by NOVOstar microplate reader analysis
A further test addresses T2, Histone deacetylase 8 (Homo sapiens, UniProt Q9BY41).
T2 sequence (Q9BY41 whole entry): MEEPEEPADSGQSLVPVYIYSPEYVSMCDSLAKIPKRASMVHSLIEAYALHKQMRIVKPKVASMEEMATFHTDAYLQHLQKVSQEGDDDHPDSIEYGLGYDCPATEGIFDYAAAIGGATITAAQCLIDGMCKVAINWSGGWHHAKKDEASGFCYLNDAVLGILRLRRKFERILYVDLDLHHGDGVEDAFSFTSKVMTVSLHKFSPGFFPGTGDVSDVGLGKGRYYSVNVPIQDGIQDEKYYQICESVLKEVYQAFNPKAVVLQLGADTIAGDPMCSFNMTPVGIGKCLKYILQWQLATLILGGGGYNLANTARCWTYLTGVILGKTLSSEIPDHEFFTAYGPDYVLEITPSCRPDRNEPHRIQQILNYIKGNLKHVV
As to the kind of experiment: Inhibition of recombinant HDAC8 (unknown origin) using Bos-Lys(TFA)-AMC as substrate preincubated with compound for 5 mins and measured after 90 mins by NOVOstar microplate reader analysis.

Test [3] concerns the target T3, Protein deacetylase HDAC6 (Homo sapiens, UniProt Q9UBN7).
T3 sequence (Q9UBN7 whole entry): T1 sequence (whole entry)
In words: Inhibition of N-terminal GST-tagged full length recombinant human HDAC6 (1 to 1215 end residues) expressed in sf9 cells using ZMAL (Z-Lys(Ac)-AMC as fluorogenic substrate preincubated with compound for 60 mins followed by substrate addition and measured after 90 mins by fluorescence based microplate reader analysis.

Test [4] is described as follows: cells. Conditions: Homo sapiens, A2780.
Description: Inhibition of class I/6 HDAC (unknown origin) in human A2780 cells using Boc-Lys(epsilon-Ac)-AMC as substrate preincubated with compound for 18 hrs followed by substrate addition and measured after 3 hrs by NOVOstar microplate reader analysis
Test [5] can be described thus: cells. Conditions: Homo sapiens, Cal27CisR, 72 h.
Description: Cytotoxicity against cisplatin resistant human Cal27CisR cells assessed as reduction in cell viability incubated for 72 hrs by MTT assay
Test [6] deals with T4, Histone deacetylase 8 (Homo sapiens) (UniProt Q9BY41).
T4 sequence (whole entry): T2 sequence (Q9BY41 whole entry)
In words: Inhibition of recombinant HDAC8 (unknown origin) at > 10 uM using Bos-Lys(TFA)-AMC as substrate preincubated with compound for 5 mins and measured after 90 mins by NOVOstar microplate reader analysis relative to control. Conditions: time 95.0 min.

Test [7] deals with A2780cisR. In words: cells. Conditions: Homo sapiens, 72 h.
Test [8] has as its system A2780. As to the kind of experiment: cells. The conditions noted are these: Homo sapiens, A2780, 72 h.
Description: Cytotoxicity against human A2780 cells assessed as reduction in cell viability incubated for 72 hrs by MTT assay
A short description of test [9]: cells. The conditions noted are these: Homo sapiens, CAL-27.
Description: Inhibition of class I/6 HDAC (unknown origin) in human CAL-27 cells using Boc-Lys(epsilon-Ac)-AMC as substrate preincubated with compound for 18 hrs followed by substrate addition and measured after 3 hrs by NOVOstar microplate reader analysis
Test [10] deals with Histone deacetylase 3/Nuclear receptor corepressor 2 (HDAC3/NCoR2) (Homo sapiens, UniProt O15379). It counts as cell-based, Sf9.
Chain of Histone deacetylase 3/Nuclear receptor corepressor 2 (HDAC3/NCoR2) (O15379 whole entry): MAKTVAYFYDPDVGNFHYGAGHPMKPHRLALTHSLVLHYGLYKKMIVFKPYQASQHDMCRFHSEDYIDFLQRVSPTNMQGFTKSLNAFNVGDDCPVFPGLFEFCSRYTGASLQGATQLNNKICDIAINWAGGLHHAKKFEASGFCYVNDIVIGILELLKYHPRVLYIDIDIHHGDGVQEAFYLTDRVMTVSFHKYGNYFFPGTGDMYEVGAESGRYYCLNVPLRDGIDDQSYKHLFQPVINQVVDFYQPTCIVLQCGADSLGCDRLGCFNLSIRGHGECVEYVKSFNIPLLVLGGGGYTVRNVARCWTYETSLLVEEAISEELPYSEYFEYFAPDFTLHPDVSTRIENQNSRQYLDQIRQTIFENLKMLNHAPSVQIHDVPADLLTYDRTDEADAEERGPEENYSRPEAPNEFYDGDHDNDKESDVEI
Chain of Histone deacetylase 3/Nuclear receptor corepressor 2 (HDAC3/NCoR2) (Q9Y618 whole entry, further chain): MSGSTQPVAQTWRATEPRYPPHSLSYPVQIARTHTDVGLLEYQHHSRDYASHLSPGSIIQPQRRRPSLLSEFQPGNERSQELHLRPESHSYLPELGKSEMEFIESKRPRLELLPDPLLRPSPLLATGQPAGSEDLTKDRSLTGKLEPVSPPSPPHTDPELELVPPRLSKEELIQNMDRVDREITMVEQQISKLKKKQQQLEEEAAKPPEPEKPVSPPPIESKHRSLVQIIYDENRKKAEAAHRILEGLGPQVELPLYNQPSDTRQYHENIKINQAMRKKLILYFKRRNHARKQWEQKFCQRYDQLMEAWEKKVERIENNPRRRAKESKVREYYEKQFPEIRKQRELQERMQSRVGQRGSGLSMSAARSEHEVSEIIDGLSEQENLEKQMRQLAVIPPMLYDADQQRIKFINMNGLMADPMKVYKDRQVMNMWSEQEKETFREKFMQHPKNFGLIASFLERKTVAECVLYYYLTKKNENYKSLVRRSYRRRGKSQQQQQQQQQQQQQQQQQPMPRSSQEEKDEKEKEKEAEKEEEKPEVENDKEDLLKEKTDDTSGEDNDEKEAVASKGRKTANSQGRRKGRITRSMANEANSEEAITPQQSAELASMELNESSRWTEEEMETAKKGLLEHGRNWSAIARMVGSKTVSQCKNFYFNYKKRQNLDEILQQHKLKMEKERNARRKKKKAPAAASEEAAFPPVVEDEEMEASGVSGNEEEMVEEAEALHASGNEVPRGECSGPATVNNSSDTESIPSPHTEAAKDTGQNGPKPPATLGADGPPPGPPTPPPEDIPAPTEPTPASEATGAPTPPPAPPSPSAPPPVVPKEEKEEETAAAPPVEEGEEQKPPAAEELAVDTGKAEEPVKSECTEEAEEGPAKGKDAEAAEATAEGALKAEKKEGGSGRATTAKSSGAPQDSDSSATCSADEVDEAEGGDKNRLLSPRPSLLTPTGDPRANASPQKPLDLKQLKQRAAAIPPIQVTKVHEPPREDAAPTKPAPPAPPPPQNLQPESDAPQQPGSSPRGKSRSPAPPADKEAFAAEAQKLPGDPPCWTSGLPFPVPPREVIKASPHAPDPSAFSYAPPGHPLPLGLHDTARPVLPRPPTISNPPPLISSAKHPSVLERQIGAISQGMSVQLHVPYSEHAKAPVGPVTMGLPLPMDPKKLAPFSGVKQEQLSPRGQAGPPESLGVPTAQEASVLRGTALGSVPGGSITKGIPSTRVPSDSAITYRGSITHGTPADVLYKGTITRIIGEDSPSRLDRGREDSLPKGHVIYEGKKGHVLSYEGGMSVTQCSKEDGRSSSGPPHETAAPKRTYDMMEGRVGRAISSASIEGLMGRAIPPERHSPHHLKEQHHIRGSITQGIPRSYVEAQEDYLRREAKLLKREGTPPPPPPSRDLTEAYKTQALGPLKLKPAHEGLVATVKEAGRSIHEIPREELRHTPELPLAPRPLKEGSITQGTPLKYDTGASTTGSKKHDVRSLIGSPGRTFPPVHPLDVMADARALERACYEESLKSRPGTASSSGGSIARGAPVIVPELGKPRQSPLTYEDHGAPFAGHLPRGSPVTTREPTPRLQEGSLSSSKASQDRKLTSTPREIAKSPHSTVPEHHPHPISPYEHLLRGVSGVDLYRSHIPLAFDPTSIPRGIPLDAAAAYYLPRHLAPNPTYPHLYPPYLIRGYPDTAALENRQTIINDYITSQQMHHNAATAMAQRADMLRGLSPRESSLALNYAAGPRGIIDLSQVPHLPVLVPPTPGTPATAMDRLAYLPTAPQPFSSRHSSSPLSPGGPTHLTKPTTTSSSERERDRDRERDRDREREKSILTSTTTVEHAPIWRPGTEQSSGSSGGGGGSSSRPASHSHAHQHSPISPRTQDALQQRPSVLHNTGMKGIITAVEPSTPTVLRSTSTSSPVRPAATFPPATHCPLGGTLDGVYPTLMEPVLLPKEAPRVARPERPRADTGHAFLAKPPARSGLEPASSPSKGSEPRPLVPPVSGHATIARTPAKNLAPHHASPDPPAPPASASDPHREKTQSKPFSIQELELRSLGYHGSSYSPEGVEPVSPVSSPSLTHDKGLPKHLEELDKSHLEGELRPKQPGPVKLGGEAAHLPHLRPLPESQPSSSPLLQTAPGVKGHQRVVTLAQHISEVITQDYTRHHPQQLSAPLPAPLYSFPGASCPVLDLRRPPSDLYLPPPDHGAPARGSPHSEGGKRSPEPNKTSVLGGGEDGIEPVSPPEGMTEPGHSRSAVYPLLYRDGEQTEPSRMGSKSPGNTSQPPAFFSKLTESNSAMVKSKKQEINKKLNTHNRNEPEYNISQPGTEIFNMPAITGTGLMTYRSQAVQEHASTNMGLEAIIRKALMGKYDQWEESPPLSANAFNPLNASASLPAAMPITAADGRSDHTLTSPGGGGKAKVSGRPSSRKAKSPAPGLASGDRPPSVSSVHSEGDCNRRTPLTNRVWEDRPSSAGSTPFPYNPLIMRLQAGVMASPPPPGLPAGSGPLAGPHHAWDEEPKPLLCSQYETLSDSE
Test [11] is described as follows: cells. Conditions: Homo sapiens, A2780cisR.
Description: Inhibition of class I/6 HDAC (unknown origin) in cisplatin resistant human A2780 cisR cells using Boc-Lys(epsilon-Ac)-AMC as substrate preincubated with compound for 18 hrs followed by substrate addition and measured after 3 hrs by NOVOstar microplate reader analysis
A short description of test [12]: cells. Conditions: Homo sapiens, Cal27CisR. The source holds these as a separate data set.
Description: Inhibition of class IIa/8 HDAC (unknown origin) in cisplatin resistant human Cal27CisR cells using Boc-Lys(TFA)-AMC as substrate preincubated with compound for 18 hrs followed by substrate addition and measured after 3 hrs by NOVOstar microplate reader analysis
A short description of test [13]: cells. Conditions: Homo sapiens, CAL-27. This is another data set of the same source.
Description: Inhibition of class IIa/8 HDAC (unknown origin) in human CAL-27 cells using Boc-Lys(TFA)-AMC as substrate preincubated with compound for 18 hrs followed by substrate addition and measured after 3 hrs by NOVOstar microplate reader analysis
A short description of test [14]: cells. The conditions noted are these: Homo sapiens, A2780cisR. The source holds these as a separate data set.
Description: Inhibition of class IIa/8 HDAC (unknown origin) in cisplatin resistant human A2780 cisR cells using Boc-Lys(TFA)-AMC as substrate preincubated with compound for 18 hrs followed by substrate addition and measured after 3 hrs by NOVOstar microplate reader analysis
A short description of test [15]: cells. Conditions: Homo sapiens, A2780. The source holds these as a separate data set.
Description: Inhibition of class IIa/8 HDAC (unknown origin) in human A2780 cells using Boc-Lys(TFA)-AMC as substrate preincubated with compound for 18 hrs followed by substrate addition and measured after 3 hrs by NOVOstar microplate reader analysis
The target of test [16] is T1, Protein deacetylase HDAC6 (Homo sapiens). As to the kind of experiment: Inhibition of N-terminal GST-tagged full length recombinant human HDAC6 (1 to 1215 end residues) expressed in sf9 cells at > 3.33 uM using ZMAL (Z-Lys(Ac)-AMC as fluorogenic substrate preincubated with compound for 60 mins followed by substrate addition and measured after 90 mins by fluorescence based microplate reader analysis relative to control.

The next test concerns Cal27CisR. As to the kind of experiment: Cytotoxicity against cisplatin resistant human Cal27CisR cells at < 10 uM assessed as reduction in cell viability incubated for 72 hrs by MTT assay. It counts as functional, cell-based. (In general: Formazan colour is commonly taken as a measure of viable cells.)
Test [17] deals with A2780cisR. In words: Cytotoxicity against cisplatin resistant human A2780 cisR cells at < 100 uM assessed as reduction in cell viability incubated for 72 hrs by MTT assay. It counts as functional, cell-based.
The test system of test [18] is A2780. As to the kind of experiment: Cytotoxicity against human A2780 cells at < 100 uM assessed as reduction in cell viability incubated for 72 hrs by MTT assay. It counts as functional, cell-based.

Active and inactive are the calls of the source. The rule behind the calls is not given here.

Description for CAL-27: Cytotoxicity against human CAL-27 cells assessed as reduction in cell viability incubated for 72 hrs by MTT assay

As to `CN(C)c1ccc(C(=O)N(CC(=O)NCc2ccccc2)Cc2ccc(C(=O)NNCCC(F)(F)F)cc2)cc1`, the IC50 at Histone deacetylase 4 is more than 10000 nM; with CAL-27, 2200 nM; in “cells [2]”, 385 nM; at Histone deacetylase 8 it was more than 10000 nM; in test [3] it was more than 10000 nM; in the test “cells [4]” it was 691 nM. Also, the IC50 came out at 3140 nM in “cells [5]”; 8050 nM with A2780cisR [7]; 2250 nM in the test with A2780 [8]; 379 nM in the test “cells [9]”; 37 nM in test [10]; 910 nM in the test “cells [11]”. Also, the inhibition in test [1] and in test [6] was less than 25% in each case.
Turning to `CC(C)CCNNC(=O)c1ccc(CN(CC(=O)NCc2ccccc2)C(=O)c2ccc(N(C)C)cc2)cc1`, the half-maximal inhibitory concentration (IC50) is more than 10000 nM at Histone deacetylase 4; 3410 nM in the test with CAL-27; 931 nM in “cells [2]”; more than 10000 nM in test [3]; 2910 nM in the test “cells [4]”; 8500 nM in the test “cells [5]”. Also, the IC50 in the test with A2780cisR [7] was 15800 nM; in the test on A2780 [8] it was 4940 nM; in “cells [9]”, 830 nM; in test [10] it was 199 nM; in “cells [11]”, 2080 nM. Also, the inhibition in test [1] is less than 25%.
For `CN(C)c1ccc(C(=O)N(CC(=O)NCc2ccccc2)Cc2ccc(C(=O)Nc3ccccc3N)cc2)cc1`, the IC50 was more than 10000 nM on Histone deacetylase 4; 6470 nM in the test “cells [12]”; 2000 nM in the test with CAL-27; 491 nM in the test “cells [2]”; more than 10000 nM at Histone deacetylase 8; more than 10000 nM in test [3]. Besides, the IC50 in “cells [4]” worked out at 1220 nM; in “cells [5]”, 2630 nM; with A2780cisR [7] it was 8280 nM; in the test on A2780 [8], 4330 nM; in the test “cells [13]”, 9340 nM; in “cells [9]” it was 327 nM. Also, the IC50 amounted to 47600 nM in the test “cells [14]”, 49800 nM in “cells [15]” and 1630 nM in “cells [11]”.
With `CN(C)c1ccc(C(=O)N(CC(=O)NCc2ccccc2)Cc2ccc(C(=O)NNCCCc3ccccc3)cc2)cc1`, the IC50 on Histone deacetylase 4 is more than 10000 nM; in the test with CAL-27 it was 10300 nM; in “cells [2]” it was 1960 nM; in test [3], more than 10000 nM; in the test “cells [4]”, 2210 nM; in “cells [5]”, 21600 nM. Moreover, the IC50 with A2780cisR [7] was 35500 nM; with A2780 [8] it was 5900 nM; in “cells [9]”, 2460 nM; in test [10], 1200 nM; in “cells [11]”, 2970 nM. Besides, in test [16], the inhibition was less than 25%.
Turning to `CN(C)c1ccc(C(=O)N(CC(=O)NCc2ccccc2)Cc2ccc(C(=O)NNc3ccccc3)cc2)cc1`, the 50% inhibitory concentration (IC50) at Histone deacetylase 4 was more than 10000 nM; with CAL-27 it was 60800 nM; in the test “cells [2]”, 24300 nM; on Histone deacetylase 8, more than 10000 nM; in test [3] it was more than 10000 nM; in “cells [4]”, 27700 nM. The IC50 in “cells [9]” was found to be 21500 nM; in test [10], 3820 nM; in the test “cells [11]”, 36000 nM. Further, the result in the test on Cal27CisR, with A2780cisR [17] and in the test on A2780 [18] was inactive. Besides, the inhibition in test [1] and in test [6] was less than 25% throughout.
Turning to `CN(C)c1ccc(C(=O)N(CC(=O)NCc2ccccc2)Cc2ccc(C(=O)NNCC3CC3)cc2)cc1`, the IC50 on Histone deacetylase 4 is more than 10000 nM; in “cells [12]”, 1280 nM; with CAL-27, 1990 nM; in the test “cells [2]”, 392 nM; in test [3], more than 10000 nM; in “cells [4]”, 722 nM. The IC50 in the test “cells [5]” came out at 2670 nM; in the test with A2780cisR [7] it was 9080 nM; in the test with A2780 [8] it was 2610 nM; in “cells [13]” it was 2970 nM; in “cells [9]”, 388 nM; in the test “cells [14]”, 11900 nM. The IC50 amounted to 8560 nM in the test “cells [15]” and 974 nM in the test “cells [11]”. In addition, in test [1], the inhibition was less than 25%.
As for `CCCCCNNC(=O)c1ccc(CN(CC(=O)NCc2ccccc2)C(=O)c2ccc(N(C)C)cc2)cc1`, the IC50 was more than 10000 nM at Histone deacetylase 4; 843 nM in the test on CAL-27; 218 nM in “cells [2]”; more than 3330 nM in test [3]; 273 nM in the test “cells [4]”; 1500 nM in “cells [5]”. In addition, the IC50 with A2780cisR [7] came to 3380 nM; in the test with A2780 [8] it was 675 nM; in the test “cells [9]”, 264 nM; in test [10], 72 nM; in the test “cells [11]”, 334 nM. The inhibition in test [16] was less than 25%.

The term IC50 denotes the concentration needed to halve the response being measured. The term inhibition denotes how much of the control response was suppressed.
